Assay [1] addresses E. coli MurC (Escherichia coli, UniProt P17952). Kind of assay: Malachite green inhibition assay, MurC. It is filed as biochemical. Conditions: for remaining activity at 100 µM: 0.25 h, read-out: RA [%] at 100 µM MurC.
For assay [2], the target named is E. coli MurD (Escherichia coli, UniProt P14900). As to the kind of experiment: biochemical. Conditions: for remaining activity at 100 µM: 0.25 h, read-out: RA [%] at 100 µM MurD. An outline of the steps:
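Orthophosphate released by E. coli MurD quantified by malachite green (Biomol green) absorbance at 650 nm after 15 min at 37 °C. Residual activity relative to DMSO-only controls.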

In assay [3] the target is E. coli MurF (Escherichia coli, UniProt P11880). As to the kind of experiment: biochemical. Conditions: for remaining activity at 100 µM: 0.25 h, read-out: RA [%] at 100 µM MurF.

Where two headings read alike, the source gives them in different places.

By IC50 is commonly meant the concentration needed to halve the response being measured.

Sequence of E. coli MurD (P14900 whole entry): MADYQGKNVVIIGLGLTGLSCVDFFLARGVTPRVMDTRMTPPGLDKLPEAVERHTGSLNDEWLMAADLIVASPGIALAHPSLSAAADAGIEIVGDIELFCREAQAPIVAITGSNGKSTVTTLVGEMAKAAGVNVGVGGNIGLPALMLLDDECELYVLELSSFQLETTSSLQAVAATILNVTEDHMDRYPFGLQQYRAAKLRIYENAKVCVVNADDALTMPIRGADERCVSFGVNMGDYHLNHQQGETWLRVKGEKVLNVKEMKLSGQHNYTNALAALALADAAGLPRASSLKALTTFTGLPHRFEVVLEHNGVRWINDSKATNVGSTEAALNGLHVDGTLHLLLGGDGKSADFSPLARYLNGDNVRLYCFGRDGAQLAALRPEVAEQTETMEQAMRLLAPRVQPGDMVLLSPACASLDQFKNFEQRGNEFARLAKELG
Sequence of E. coli MurF (P11880 whole entry): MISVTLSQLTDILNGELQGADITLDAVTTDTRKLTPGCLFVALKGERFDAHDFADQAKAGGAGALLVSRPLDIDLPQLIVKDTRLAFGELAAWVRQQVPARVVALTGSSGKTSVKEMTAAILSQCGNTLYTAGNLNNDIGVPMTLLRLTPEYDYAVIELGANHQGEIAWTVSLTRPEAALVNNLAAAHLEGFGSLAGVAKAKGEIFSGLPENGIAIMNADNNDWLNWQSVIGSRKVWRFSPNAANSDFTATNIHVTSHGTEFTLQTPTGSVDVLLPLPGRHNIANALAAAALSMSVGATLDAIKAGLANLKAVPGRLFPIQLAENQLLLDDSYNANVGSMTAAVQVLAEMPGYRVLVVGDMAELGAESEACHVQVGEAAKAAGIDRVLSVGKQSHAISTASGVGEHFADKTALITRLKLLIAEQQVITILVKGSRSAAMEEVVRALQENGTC
Sequence of E. coli MurC (P17952 whole entry): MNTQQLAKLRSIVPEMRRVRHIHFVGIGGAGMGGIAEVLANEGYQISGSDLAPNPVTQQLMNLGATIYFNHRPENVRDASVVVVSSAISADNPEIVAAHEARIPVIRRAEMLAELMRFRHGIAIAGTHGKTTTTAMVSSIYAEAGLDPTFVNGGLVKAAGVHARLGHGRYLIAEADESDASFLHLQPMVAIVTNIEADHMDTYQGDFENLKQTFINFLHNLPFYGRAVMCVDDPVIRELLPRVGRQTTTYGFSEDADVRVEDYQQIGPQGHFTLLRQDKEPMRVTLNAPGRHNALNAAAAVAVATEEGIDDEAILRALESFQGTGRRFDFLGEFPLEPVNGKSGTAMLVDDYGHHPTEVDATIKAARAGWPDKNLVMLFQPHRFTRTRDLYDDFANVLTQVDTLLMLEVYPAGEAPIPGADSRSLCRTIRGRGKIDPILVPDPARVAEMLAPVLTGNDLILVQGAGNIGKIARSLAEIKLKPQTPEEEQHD

In the case of `COc1cc(C=NNc2ncnc3c2cnn3Cc2ccccc2)ccc1O` [GW643971X], the remaining activity at 100 µM in assay [1] (Table S1, PKIS screening) is 56%; in assay [2] (Table S1, PKIS screening), 78%; in assay [3] (Table S1, PKIS screening) it was 25%.
For the molecule `COc1cc(/C=N/Nc2ncnc3c2cnn3C(C)C)ccc1O` [GW644007X], the remaining activity at 100 µM in assay [1] (Table S1, PKIS screening) is 87%; in assay [2] (Table S1, PKIS screening), 91%; in assay [3] (Table S1, PKIS screening), 78%.
With `Fc1cccc(COc2ccc(Nc3ncncc3C#Cc3ccccc3)cc2Cl)c1` [GW651576X], the remaining activity at 100 µM in assay [1] (Table S1, PKIS screening) came out at 44%; in assay [2] (Table S1, PKIS screening), 43%; in assay [3] (Table S1, PKIS screening) it was 91%. Also, the IC50 in assay [1] (printed in the RA cell of Table S1, read-out: IC50 MurC) was 120 µM; in assay [2] (printed in the RA cell of Table S1, read-out: IC50 MurD) it was 90 µM.
For the molecule `CCc1cccc(NC(=O)Nc2ccc(Oc3ccc4nc(NC(=O)OC)[nH]c4c3)cc2)c1` [GW673715X], the remaining activity at 100 µM stood at 79% in assay [1] (Table S1, PKIS screening); 83% in assay [2] (Table S1, PKIS screening); 68% in assay [3] (Table S1, PKIS screening).
As for `CCS(=O)(=O)c1ccc(OC)c(Nc2ncc(-c3cccc(-c4ccccc4F)c3)o2)c1` [GW678313X], the remaining activity at 100 µM worked out at 87% in assay [1] (Table S1, PKIS screening); 64% in assay [2] (Table S1, PKIS screening); 82% in assay [3] (Table S1, PKIS screening).
Consider `COc1ccc(-c2cc(-c3c[nH]nc3-c3ccccn3)ccn2)cc1` [GW679410X#4], for which the “RA [%] at 100 µM MurC” value in assay [1] (Table S1, PKIS screening) is listed as 61%. Also, in assay [2], the “RA [%] at 100 µM MurD” value was 98%. In assay [3] (Table S1, PKIS screening), the “RA [%] at 100 µM MurF” value was 82%.
As for `C#Cc1cccc(Nc2ncnc3ccc(OCCCCNCCS(C)(=O)=O)cc23)c1` [GW680191X], the remaining activity at 100 µM in assay [1] (Table S1, PKIS screening) amounted to 75%; in assay [2] (Table S1, PKIS screening) it was 93%; in assay [3] (Table S1, PKIS screening), 102%.
For the molecule `COC(=O)Nc1nc2ccc(S(=O)(=O)c3ccc(NC(=O)Nc4cc(C(F)(F)F)ccc4F)cc3)cc2[nH]1` [GW680908A], the remaining activity at 100 µM was 77% in assay [1] (Table S1, PKIS screening); 69% in assay [2] (Table S1, PKIS screening); 97% in assay [3] (Table S1, PKIS screening).
Regarding `Fc1ccc(-c2cc(-c3c[nH]nc3-c3ccccn3)ccn2)cc1` [GW680975X], the remaining activity at 100 µM in assay [1] (Table S1, PKIS screening) stood at 68%; in assay [2] (Table S1, PKIS screening), 84%; in assay [3] (Table S1, PKIS screening), 96%.
`CC(C)c1ccc(-c2cc(-c3c[nH]nc3-c3ccccn3)ccn2)cc1` [GW682841X]: the remaining activity at 100 µM amounted to 78% in assay [1] (Table S1, PKIS screening); 85% in assay [2] (Table S1, PKIS screening); 88% in assay [3] (Table S1, PKIS screening).
For the molecule `O=C(Nc1ccc(Oc2ccc3nc(NC(=O)c4ccco4)[nH]c3c2)cc1)Nc1cc(C(F)(F)F)ccc1F` [GW683134A], the remaining activity at 100 µM was 74% in assay [1] (Table S1, PKIS screening); 86% in assay [2] (Table S1, PKIS screening); 100% in assay [3] (Table S1, PKIS screening).
Regarding `Fc1cccc(COc2ccc(Nc3ncnc4sc(-c5cccs5)cc34)cc2Cl)c1` [GW684626B], the remaining activity at 100 µM turned out to be 59% in assay [1] (Table S1, PKIS screening); 75% in assay [2] (Table S1, PKIS screening); 100% in assay [3] (Table S1, PKIS screening).
On to `Nc1nc(-c2ccccn2)c(-c2ccc3ncccc3n2)s1` [GW693481X], for which the remaining activity at 100 µM in assay [1] (Table S1, PKIS screening) was 99%; in assay [2] (Table S1, PKIS screening) it was 88%; in assay [3] (Table S1, PKIS screening), 94%.
Regarding `COC(=O)Nc1nc2ccc(Oc3ccc(NC(=O)Nc4cccc(Br)c4)cc3)cc2[nH]1` [GW694234A], the remaining activity at 100 µM in assay [1] (Table S1, PKIS screening) came to 71%; in assay [2] (Table S1, PKIS screening), 86%; in assay [3] (Table S1, PKIS screening) it was 72%.
For `COC(=O)Nc1nc2ccc(Oc3ccc(NC(=O)Nc4ccccc4)cc3)cc2[nH]1` [GW694590A], the remaining activity at 100 µM in assay [1] (Table S1, PKIS screening) worked out at 62%; in assay [2] (Table S1, PKIS screening) it was 99%; in assay [3] (Table S1, PKIS screening) it was 75%.
On to `c1ccc(-c2n[nH]cc2-c2ccnc(-c3ccc(OCCN4CCOCC4)cc3)c2)nc1` [GW695874X], for which the remaining activity at 100 µM in assay [1] (Table S1, PKIS screening) worked out at 79%; in assay [2] (Table S1, PKIS screening), 80%; in assay [3] (Table S1, PKIS screening), 91%.
Consider `CN1CCN(CCCNc2nc3ccc(Oc4ccc(NC(=O)Nc5cc(C(F)(F)F)ccc5F)cc4)cc3[nH]2)CC1` [GW700494A], for which the remaining activity at 100 µM turned out to be 99% in assay [1] (Table S1, PKIS screening); 73% in assay [2] (Table S1, PKIS screening); 95% in assay [3] (Table S1, PKIS screening).
For `c1cc(-c2cnn3nc(N4CCOCC4)ccc23)nc(NC2CC2)n1` [GW708336X], the remaining activity at 100 µM is 98% in assay [1] (Table S1, PKIS screening); 92% in assay [2] (Table S1, PKIS screening); 98% in assay [3] (Table S1, PKIS screening).
As for `Cc1nnc(-c2ccc(C)c(-c3ccc(C(=O)NCc4ccc(Cl)cc4)cc3)c2)o1` [GW708893X], the remaining activity at 100 µM amounted to 100% in assay [1] (Table S1, PKIS screening); 100% in assay [2] (Table S1, PKIS screening); 94% in assay [3] (Table S1, PKIS screening).
For the molecule `O=C(Nc1ccc(Oc2ccc3nc(NC(=O)c4ccccc4)[nH]c3c2)cc1)Nc1cc(C(F)(F)F)ccc1F` [GW709042A], the remaining activity at 100 µM stood at 100% in assay [1] (Table S1, PKIS screening); 95% in assay [2] (Table S1, PKIS screening); 100% in assay [3] (Table S1, PKIS screening).
Turning to `c1ccc(-c2n[nH]cc2-c2ccnc(-c3ccc(OCCn4ccnc4)cc3)c2)nc1` [GW711782X], the remaining activity at 100 µM in assay [1] (Table S1, PKIS screening) was determined as 100%; in assay [2] (Table S1, PKIS screening), 74%; in assay [3] (Table S1, PKIS screening) it was 93%.
As to `Cc1nnc(-c2cccc(-c3ccc(C(=O)NCC4CC4)cc3)c2)o1` [GW734508X], the remaining activity at 100 µM in assay [1] (Table S1, PKIS screening) is 89%; in assay [2] (Table S1, PKIS screening), 100%; in assay [3] (Table S1, PKIS screening), 74%.
Regarding `Cc1ccc(NC(=O)c2ccnc(N3CCCC3)c2)cc1-c1ccc(C(=O)NCC2CC2)cc1` [GW769076X], the remaining activity at 100 µM in assay [1] (Table S1, PKIS screening) was 38%; in assay [2] (Table S1, PKIS screening), 56%; in assay [3] (Table S1, PKIS screening) it was 62%.
As to `Cc1nn(C)c2cc(N(C)c3ccnc(Nc4cccc(S(N)(=O)=O)c4)n3)ccc12` [GW770220A], the remaining activity at 100 µM in assay [1] (Table S1, PKIS screening) stood at 91%; in assay [2] (Table S1, PKIS screening) it was 86%; in assay [3] (Table S1, PKIS screening), 74%.
On to `Nc1ncnc2occ(-c3ccc(NC(=O)Nc4cc(C(F)(F)F)ccc4F)cc3)c12` [GW770249A], for which the remaining activity at 100 µM in assay [1] (Table S1, PKIS screening) amounted to 60%; in assay [2] (Table S1, PKIS screening), 83%; in assay [3] (Table S1, PKIS screening) it was 63%.
Consider `N#Cc1cccc(Nc2nccc(-c3cnn4ncccc34)n2)c1` [GW778894X], for which the remaining activity at 100 µM is 66% in assay [1] (Table S1, PKIS screening); 70% in assay [2] (Table S1, PKIS screening); 68% in assay [3] (Table S1, PKIS screening).
With `CCN(CC)Cc1ccc(Nc2nccc(-c3cnn4ncccc34)n2)cc1` [GW780056X], the remaining activity at 100 µM was found to be 78% in assay [1] (Table S1, PKIS screening); 78% in assay [2] (Table S1, PKIS screening); 88% in assay [3] (Table S1, PKIS screening).
Consider `Nc1nc(-c2cccc(Cl)c2)c(-c2ccc3ncccc3n2)s1` [GW780159X], for which the remaining activity at 100 µM amounted to 56% in assay [1] (Table S1, PKIS screening); 90% in assay [2] (Table S1, PKIS screening); 83% in assay [3] (Table S1, PKIS screening).
In the case of `NC(=O)c1cccc(Nc2nccc(Nc3cccc4[nH]ncc34)n2)c1` [GW782612X], the remaining activity at 100 µM in assay [1] (Table S1, PKIS screening) stood at 86%; in assay [2] (Table S1, PKIS screening) it was 92%; in assay [3] (Table S1, PKIS screening), 77%.
In the same order, the values of `CN1CCN(Cc2ccc(-c3cc4ncnc(Nc5ccc(OCc6cccc(F)c6)c(Cl)c5)c4s3)o2)CC1` [GW784684X] are 20%, 52% and 56%.
On the same counts, the results for `CCn1c(-c2nonc2N)nc2ccc(F)cc21` [GW785404X] are 100%, 88% and 79%.
For `Nc1nc(-c2ccc(F)cc2)c(-c2ccc3ncccc3n2)s1` [GW785804X], the remaining activity at 100 µM in assay [1] (Table S1, PKIS screening) was 100%; in assay [2] (Table S1, PKIS screening), 82%; in assay [3] (Table S1, PKIS screening), 78%.
As to `Cc1cccc(-c2n[nH]cc2-c2ccc3ncccc3n2)n1` [GW786460X], the remaining activity at 100 µM in assay [1] (Table S1, PKIS screening) came to 82%; in assay [2] it was 76%; in assay [3], 91%.
`Nc1ncnc2occ(-c3ccc(NC(=O)Nc4cc(C(F)(F)F)cc(C(F)(F)F)c4)cc3)c12` [GW795486X]: the remaining activity at 100 µM is 36% in assay [1] (Table S1, PKIS screening); 57% in assay [2] (Table S1, PKIS screening); 71% in assay [3] (Table S1, PKIS screening).
Turning to `Nc1nccc(C#Cc2cncnc2Nc2ccc(OCc3cccc(F)c3)c(Cl)c2)n1` [GW799251X], the remaining activity at 100 µM in assay [1] (Table S1, PKIS screening) came out at 33%; in assay [2] (Table S1, PKIS screening), 50%; in assay [3] (Table S1, PKIS screening), 0%.
In the case of `COc1cc(Nc2nccc(-c3cnn4ncccc34)n2)cc(OC)c1` [GW801372X], the remaining activity at 100 µM in assay [1] (Table S1, PKIS screening) worked out at 94%; in assay [2] (Table S1, PKIS screening) it was 88%; in assay [3] (Table S1, PKIS screening), 80%.
`COc1cccc(COc2cc(-n3cnc4ccccc43)sc2C(N)=O)c1` [GW804482X]: the remaining activity at 100 µM in assay [1] (Table S1, PKIS screening) was 100%; in assay [2] (Table S1, PKIS screening) it was 79%; in assay [3] (Table S1, PKIS screening) it was 82%.
`CC(C)c1ccc(Nc2nccc(-c3cnn4ncccc34)n2)cc1` [GW805758X]: the remaining activity at 100 µM in assay [1] (Table S1, PKIS screening) came out at 64%; in assay [2] (Table S1, PKIS screening) it was 57%; in assay [3] (Table S1, PKIS screening), 68%.
On to `c1cnn2ncc(-c3ccnc(Nc4ccc5c(c4)OCCO5)n3)c2c1` [GW806290X], for which the remaining activity at 100 µM in assay [1] (Table S1, PKIS screening) turned out to be 64%; in assay [2] (Table S1, PKIS screening), 69%; in assay [3] (Table S1, PKIS screening), 71%.
On the same counts, the results for `CN(c1ccc(NC(=O)Nc2ccc(OC(F)(F)F)cc2)cc1)c1ccnc(Nc2cccc(S(N)(=O)=O)c2)n1` [GW806742X] are 64%, 92% and 93%.
